What was measured:
[1] = tested on: Glucose-6-phosphatedehydrogenase; experiment: Activity of glucose-6-phosphatedehydrogenase in myocardium upon low-temperature treatment; assay type: in vivo, mice; settings: 2.5 hours at -14° C.; 80 mg/kg (invention) or 64 mg/kg (ester); control 57.3 ± 1.3
Experimental: (§2) The preparations were administered one hour before the standard low-temperature treatment (-14° C.) in doses of 80 mg/kg of the compound according to the present invention and 64 mg/kg of the prior art compound-butanedioic acid mono[(2-dimethylamino)-ethyl ester].

Glutamatedehydrogenase = experiment: Activity of glutamatedehydrogenase in myocardium upon low-temperature treatment; assay type: in vivo, mice; settings: 2.5 hours at -14° C.; 80 mg/kg (invention) or 64 mg/kg (ester); control 68.8 ± 1.5
Experimental: as §2

[2] = tested on: NAD-Ph--H2 --dehydrogenase; experiment: Activity of NAD-Ph-H2-dehydrogenase in myocardium upon low-temperature treatment; assay type: in vivo, mice; settings: 2.5 hours at -14° C.; 80 mg/kg (invention) or 64 mg/kg (ester); control 72.1 ± 1.4
Experimental: as §2

[3] = Blood glucose and organ glycogen upon predetermined (2.5 h) cold treatment (adaptation experiment); assay type: in vivo, mice; settings: adaptation + preparation immediately after adaptation, 80 mg/kg (invention) or 64 mg/kg (ester), 2.5 h at -14° C.
Experimental: (§1) To elucidate the effect of the compound according to the present invention on the adaptation phenomenon, experiments on male mice with a body mass of 18-20 g were carried out in conformity with the Le Blanc procedure according to which the mice were placed into a cold chamber (at -17° C.) for 10 minutes ever hour over the period of 9-10 hours. After one day the maximum lifespan of the mice at -17° C. was assessed along with the content of glucose in blood and of glycogen in organs upon a predetermined cold treatment (2.5 hours a -14° C.). The compound according to the present invention and butanedioic acid mono[(2-dimethylamino)-ethyl ester] (in doses of 80 and 64 mg/kg respectively) were introduced immediately after a series of short-time cold effects. In a number of experiments the compound according to the present invention was administered 1 hour prior to the testing (2.5 h) cold effect.

[4] = Survival of mice on acute cooling; assay type: in vivo; settings: i.p. 1 hour before, 80 mg/kg (invention), 64 mg/kg (ester), 17 mg/kg (sodium succinate)
Experimental: The activity of the compound according to the present invention was studied in experiments on animals. The effectivemess of the compound according to the present invention was studied for resistance against an acute cold effect in comparison with conventional preparations such as butanedioic acid mono[(2-dimethylamino)ethyl ester] and sodium succinate.
The experiments were carried out on male mice (tetrahybdrids) with a body mass of 18-20 g which were placed into a cold chamber at a temperature of -15t to -17° C. in separate plastic cages slightly limiting their activity. […] The preparations were administered intraperiotoneally 1 hour before the cold effect the control animals were administered with a physiological solution.

[5] = Maximum duration of mice lifespan upon testing cold treatment (Le Blanc adaptation procedure); assay type: in vivo; settings: with preliminary adaptation; 80 mg/kg (invention) or 64 mg/kg (ester); adaptation alone 6.0 ± 0.3
Experimental: as §1

[6] = Stresso-protective activity, motion stress in slowly rotating drum for 48 hours; assay type: in vivo, rats; settings: 48 h motion stress
Experimental: In evaluation of the stresso-protective activity of the compound according to the present invention as a model use was made of a procedure of depriving rats of sleep, meals and water in a slowly rotating drum (at the speed of 0.2 km/h).
The experiments were carried out on 42 nondescript male rats. In parallel experiments the antistress activity of butanedioic acid mono[(2-dimethylamino)ethyl ester] was studied; as the reference prepartion use was made of the prior art tranquilizer--diazepam which was used in the experiments for this very indication.
4 groups of animals were tested in parallel. Groups I and II were placed for 48 hours into a slowly rotating drum, groups III and IV were under normal conditions and were deprived only of meals and water. The compound according to the present invention and butanedioic acid mono[(2-dimethylamino)ethyl ester] were administered intraperitoneally in the dose of 10 mg/kg four times (2 times a day) in the volume of 2.5 ml/kg under the conditions of motion stress (Group I of the animals) and under normal conditions (Group III of animals). The control animals--Group II (active control) and Group IV (passive control) were given a physiological solution. The efficiency of the compound according to the present invention, of butanedioic acid mono[(2-dimethylamino)ethyl ester] and of diazepam was estimated on the basis of a set of characteristics showing the functional activity of the central nervous system, physical fitness and development of basic symptoms of the stress-syndrome.
The residence of control rats in a slowly-rotating drum over 48 hours results in a noticeable deterioration of all the studied characteristics, especially those of higher nervous activity (learning) and development of stress-syndrome. The state of control animals was characterized by lowering of the overall behavioural activity as determined by the "open-field" test (37±15%) with reference to the passive control level, by a reduction in the speed of development of a conventional avoiding response in an aqueous labyrinth (58±15%), by an increase in the number of mistakes during the teaching time (175±25%), lowering of the ultimate physical endurance as determined by the swimming-with-load test (the load is equal to 10% by mass of the body (70±17%), adrenal hypertrophy (146±16%), thymus atrophy (49±9%) and formation of ulcers on the stomach mucous membrane (5.25±1.0%).

NADH2 --dehydrogenase = experiment: Activity of NADH2-dehydrogenase in myocardium upon low-temperature treatment; assay type: in vivo, mice; settings: 2.5 hours at -14° C.; 80 mg/kg (invention) or 64 mg/kg (ester); control 69.8 ± 1.5
Experimental: as §2

Pyruvatedehydrogenase = experiment: Activity of pyruvatedehydrogenase in myocardium upon low-temperature treatment; assay type: in vivo, mice; settings: 2.5 hours at -14° C.; 80 mg/kg (invention) or 64 mg/kg (ester); control 56.6 ± 1.1
Experimental: as §2

Isocitratedehydrogenase = experiment: Activity of isocitratedehydrogenase in myocardium upon low-temperature treatment; assay type: in vivo, mice; settings: 2.5 hours at -14° C.; 80 mg/kg (invention) or 64 mg/kg (ester); control 49.5 ± 1.2
Experimental: as §2

Succinatedehydrogenase = experiment: Activity of succinatedehydrogenase in myocardium upon low-temperature treatment; assay type: in vivo, mice; settings: 2.5 hours at -14° C.; 80 mg/kg (invention) or 64 mg/kg (ester); control 72.3 ± 1.6
Experimental: as §2

[7] = Biochemical substrates in mice upon preset (2.5 hours) low-temperature treatment; settings: 2.5 hours at -14° C., 1 hour after 80 mg/kg (invention) or 64 mg/kg (ester)
Experimental: as §2

Structure (SMILES): CN(C)CCOC(=O)CCC(=O)O [Butanedioic acid mono[(2-dimethylamino)ethyl ester]] [reference compound]
- Activity of glucose-6-phosphatedehydrogenase in myocardium [1]: 60.2 ± 1.4 relative units
- Activity of glutamatedehydrogenase in myocardium (Glutamatedehydrogenase): 72.4 ± 0.6 relative units
- Activity of NAD-Ph-H2-dehydrogenase in myocardium [2]: 76.4 ± 2.7 relative units
- Glycogen, heart ([3]; control 1.7 ± 0.2): 2.4 ± 0.2 mg/g
- Glycogen, liver ([3]; control 6.7 ± 0.4): 10.2 ± 2.7 mg/g
- Blood glucose ([3]; control 37 ± 6): 75 ± 4 mg. %
- Survival, %, 1 hour ([4]; 1 hour of cold at -15 to -17° C.): 100%
- Survival, %, 2 hours ([4]; 2 hours of cold at -15 to -17° C.): 90%
- Survival, %, 3 hours ([4]; 3 hours of cold at -15 to -17° C.): 70%
- Survival, %, 4 hours ([4]; 4 hours of cold at -15 to -17° C.): 50%
- Survival, %, 5 hours ([4]; 5 hours of cold at -15 to -17° C.): 20%
- Survival, %, 6 hours ([4]; 6 hours of cold at -15 to -17° C.): 10%
- Lifespan in hours (at -17° C.), preliminary adaptation + preparation [5]: 6.2 ± 0.4 h
- stresso-protective activity compared with the compound of the invention ([6]; in words): far less pronounced
- Weight coefficient of thymus ([6]; 10 mg/kg i.p. four times (invention, ester), control 0.95 ± 0.18, 10 mg/kg): 1.08 g/kg of the initial body mass
- Weight coefficient of adrenal glands ([6]; 10 mg/kg i.p. four times (invention, ester), control 1.246 ± 0.028, 10 mg/kg): 1.42 g/kg of the initial body mass
- Number of attempts till reaching the learning criterion (water labyrinth) ([6]; 10 mg/kg i.p. four times (invention, ester), control 4.75 ± 0.5, 10 mg/kg): 4.10
- Number of ulcers on the stomach mucous membrane ([6]; 10 mg/kg i.p. four times (invention, ester), control 5.25 ± 1.0, 10 mg/kg): 4.2
- Duration of swimming ([6]; 10 mg/kg i.p. four times (invention, ester), control 244 ± 26, 10 mg/kg): 325 s
- Activity of NADH2-dehydrogenase in myocardium (NADH2 --dehydrogenase): 70.8 ± 2.7 relative units
- Activity of pyruvatedehydrogenase in myocardium (Pyruvatedehydrogenase): 62.6 ± 3.5 relative units
- Activity of isocitratedehydrogenase in myocardium (Isocitratedehydrogenase): 58.2 ± 1.4 relative units
- Activity of succinatedehydrogenase in myocardium (Succinatedehydrogenase): 75.6 ± 2.4 relative units
- Liver glycogen ([7]; control 8.1 ± 0.6, intact 35.2 ± 4.5): 6.7 ± 0.8 mg/kg
- Blood glucose ([7]; control 42 ± 4, intact 79 ± 3): 64 ± 2 mg. %
- Creatine phosphate ([7]; myocardium, control 1.2 ± 0.08, intact 3.7 ± 0.3): 1.4 ± 0.04 μm/g
